Laboratory results reported in patent publication US20260015350A1, “AZAQUINAZOLINE PAN-KRAS INHIBITORS” (Mirati Therapeutics, Inc., priority 2022, published 2026).

Legend:
[1] = test system: KRas-mediated phosphorylation of ERK in A549 cells; test: Inhibition of KRas-mediated phosphorylation of ERK (Cisbio HTRF pERK), A549 cells; format: cell-based; settings: Homo sapiens, A549, 3 h, single point, 100 nM compound, 3 hrs
In short: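 A cell-based HTRF pERK assay: ten-point, threefold titrations beginning at 10 uM were applied for 3 hrs, with 0.2 uM Trametinib wells as the minimum control. Cells were lysed cold, and lysate was incubated with the antibody pair for 2 hrs before reading.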

[2] = test system: KRas-mediated phosphorylation of ERK in H727 cells; test: Inhibition of KRas-mediated phosphorylation of ERK (Cisbio HTRF pERK), H727 cells; format: cell-based; settings: Homo sapiens; for IC50: NCI-H727, H727 cells, HTRF pERK
In short: (§1)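 Compound treatment lasts 3 hrs on 6,000 seeded cells, testing 10 doses from a 10 uM top concentration in 3-fold decrements at 0.8% final DMSO. Trametinib at 0.2 uM defines the Min signal. Detection is HTRF on cold-lysed cell extracts.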

[3] = test system: KRas-mediated phosphorylation of ERK in HCT116 cells; test: Inhibition of KRas-mediated phosphorylation of ERK (Cisbio HTRF pERK), HCT116 cells; format: cell-based; settings: Homo sapiens, HCT-116, 3 h, single point, 100 nM compound, 3 hrs
Procedure: (§2) Inhibition of KRas Phosphorylation of ERK (HTRF) by Exemplary Compounds of Formula (I) Cisbio HTRF Advanced PERK Assay Catalog #64[…] […] Add 10 mL of media to stop trypsinizing. Pipette the cells into a conical bottom 50 mL centrifuge tube and centrifuge 5 min×1000 rpm. […] Re-suspend the cell pellet in media, take a cell count, and then adjust the cell density using fresh media. […] Seed 6,000 cells into cell culture plate with 50 μL media. […] Use Tecan to complete the compound addition. Compounds start from 10 uM top, 3-fold dilution, and 10 doses. The final DMSO concentration is 0.8%. Dispensed 0.2 uM Trametinib as Min control. […] Incubate cell plate for 3 hrs in the incubator. […] Dilute 1 volume of 4× lysis buffer with 3 volumes of deionized water. […] Keep lysis buffer on the ice. […] At the end of the compound treatment, flick-off the media. […] Add 35 μL of lysis buffer per well using a Multidrop Combi. Then place on a plate agitator shaking at 300 rpm at 4° C. for 40 mins. […] Make up the HTRF antibody buffer. For each assay plate, mix 50 μL of d2-conjugate antibody with 950 μL of detection buffer. Similarly, mix 50 μL of Cryptate antibody with 950 μL of detection buffer. Then mix the two diluted antibodies together. […] Dispense 3.4 μL the antibody buffer to wells of an empty assay plate. Seal the plate and centrifuge plate 30 sec×1000 rpm. […] At the end of the 4° C. lysis, centrifuge the lysate plates 3 mins×1500 rpm. […] Use the Bravo to transfer 13.6 μL of lysate from cell culture plate to assay plate. Then incubate assay plate for 2 hrs at room temperature. 8. At the end of incubation, read plate on the Envision after centrifuging plate 30 sec×1000 rpm.

[4] = test system: KRas-mediated phosphorylation of ERK in AsPC-1 cells; test: Inhibition of KRas-mediated phosphorylation of ERK (Cisbio HTRF pERK), AsPC-1 cells; format: cell-based; settings: Homo sapiens; for IC50: ASPC1, AsPC-1 cells, HTRF pERK
In short: as §1

[5] = test system: KRas-mediated phosphorylation of ERK in H358 cells; test: Inhibition of KRas-mediated phosphorylation of ERK (Cisbio HTRF pERK), H358 cells; format: cell-based; settings: Homo sapiens, NCI-H358, 3 h, single point, 100 nM compound, 3 hrs
Procedure: as §2

[6] = test system: KRas-mediated phosphorylation of ERK in H460 cells; test: Inhibition of KRas-mediated phosphorylation of ERK (Cisbio HTRF pERK), H460 cells; format: cell-based; settings: Homo sapiens, NCI-H460, 3 h, single point, 100 nM compound, 3 hrs
Procedure: as §2

KRas^G12D = molecular target: T1, KRas^G12D (Homo sapiens, UniProt P01116, G12D); test: KRas binding assay (TR-FRET tracer displacement), KRas G12D
T1 construct: Biotinylated KRas (corresponding to amino acids 1-169, produced at Accelegan Inc.); biotin (biotinylated); purchased Accelegan Inc
T1 sequence (P01116 1-169 isoform P01116-2 G12D): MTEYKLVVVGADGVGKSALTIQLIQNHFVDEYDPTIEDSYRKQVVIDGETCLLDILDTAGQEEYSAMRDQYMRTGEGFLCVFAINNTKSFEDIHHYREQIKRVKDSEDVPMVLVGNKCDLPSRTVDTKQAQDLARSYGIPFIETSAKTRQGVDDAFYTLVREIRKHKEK

KRas^G12V = molecular target: T2, KRas^G12V (Homo sapiens, UniProt P01116, G12V); test: KRas binding assay (TR-FRET tracer displacement), KRas G12V
T2 construct: Biotinylated KRas (corresponding to amino acids 1-169, produced at Accelegan Inc.); biotin (biotinylated); purchased Accelegan Inc
T2 sequence (P01116 1-169 isoform P01116-2 G12V): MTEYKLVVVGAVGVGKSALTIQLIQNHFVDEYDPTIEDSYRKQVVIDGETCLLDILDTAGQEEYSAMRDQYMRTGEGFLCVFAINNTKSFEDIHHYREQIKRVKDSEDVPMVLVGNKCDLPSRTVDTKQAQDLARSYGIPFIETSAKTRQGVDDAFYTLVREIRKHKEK

KRas^G12R = molecular target: T3, KRas^G12R (Homo sapiens, UniProt P01116, G12R); test: KRas binding assay (TR-FRET tracer displacement), KRas G12R
T3 construct: Biotinylated KRas (corresponding to amino acids 1-169, produced at Accelegan Inc.); biotin (biotinylated); purchased Accelegan Inc
T3 sequence (P01116 1-169 isoform P01116-2 G12R): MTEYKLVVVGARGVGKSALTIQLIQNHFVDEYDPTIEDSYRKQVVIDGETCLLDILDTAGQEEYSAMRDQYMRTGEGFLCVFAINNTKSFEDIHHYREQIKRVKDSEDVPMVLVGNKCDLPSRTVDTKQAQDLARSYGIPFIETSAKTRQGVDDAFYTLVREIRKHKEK

Structure (SMILES)	IC50 [2] [nM]	IC50 [4] [nM]	IC50 (KRas^G12D) [nM]	IC50 (KRas^G12V) [nM]	IC50 (KRas^G12R) [nM]	inhibition at 0.1 µM [1] [%]	inhibition at 0.1 µM [3] [%]	inhibition at 0.1 µM [5] [%]	inhibition at 0.1 µM [6] [%]	inhibition at 0.1 µM ([2]; NCI-H727, 3 h, single point, 100 nM compound, 3 hrs, H727 cells) [%]	inhibition at 0.1 µM ([4]; ASPC1, 3 h, single point, 100 nM compound, 3 hrs, AsPC-1 cells) [%]
CCc1c(F)ccc2cc(O)cc(-c3ncc4c(N5CCCC6(C5)NC(=O)NC6=O)nc(N5CC(N(C)C)C5)nc4c3F)c12 (centres unmarked) [Example 534, 7-(2-(3-(dimethylamino)azetidin-1-yl)-7-(8-ethyl-7-fluoro-3-hydroxynaphthalen-1-yl)-8-fluoropyrido[4,3-d]pyrimidin-4-yl)-1,3,7-triazaspiro[4.5]decane-2,4-dione]	1620	5810	7	5	2	-19	-6	-9	-6	–	–
CCc1c(F)ccc2cc(O)cc(-c3ncc4c(N5CCCn6nc(C(=O)N(C)C)cc6C5)nc(N5CC(N(C)C)C5)nc4c3F)c12 [Example 535, 5-(2-(3-(dimethylamino)azetidin-1-yl)-7-(8-ethyl-7-fluoro-3-hydroxynaphthalen-1-yl)-8-fluoropyrido[4,3-d]pyrimidin-4-yl)-N,N-dimethyl-5,6,7,8-tetrahydro-4H-pyrazolo[1,5-a][1,4]diazepine-2-carboxamide]	2190	1620	17	27	44	-9	-3	-8	16	–	–
C#CC1(F)CCN(c2nc(OC[C@@]34CCCN3C[C@H](F)C4)nc3c(F)c(-c4cc(O)cc5ccc(F)c(CC)c45)ncc23)CC1 [Example 553, 5-ethyl-4-(4-(4-ethynyl-4-fluoropiperidin-1-yl)-8-fluoro-2-(((2R,7aS)-2-fluorotetrahydro-1H-pyrrolizin-7a(5H)-yl)methoxy)pyrido[4,3-d]pyrimidin-7-yl)-6-fluoronaphthalen-2-ol]	1630	5160	864	77	79	0	6	3	0	–	–
CCc1c(F)ccc2cc(O)cc(-c3ncc4c(N5CCCC(C6CCOC6)C5)nc(OC[C@@]56CCCN5C[C@H](F)C6)nc4c3F)c12 (stereo partly drawn) [Example 595, 5-ethyl-6-fluoro-4-(8-fluoro-2-(((2R,7aS)-2-fluorohexahydro-1H-pyrrolizin-7a-yl)methoxy)-4-(3-(tetrahydrofuran-3-yl)piperidin-1-yl)pyrido[4,3-d]pyrimidin-7-yl)naphthalen-2-ol]	1190	1570	194	38	85	3	-9	-1	12	–	–

Compounds with a lower IC50 [2], results first:

IC50 [2] [nM]	IC50 [4] [nM]	IC50 (KRas^G12D) [nM]	IC50 (KRas^G12V) [nM]	IC50 (KRas^G12R) [nM]	Structure (SMILES)	inhibition at 0.1 µM [1] [%]	inhibition at 0.1 µM [3] [%]	inhibition at 0.1 µM [5] [%]	inhibition at 0.1 µM [6] [%]	inhibition at 0.1 µM ([2]; NCI-H727, 3 h, single point, 100 nM compound, 3 hrs, H727 cells) [%]	inhibition at 0.1 µM ([4]; ASPC1, 3 h, single point, 100 nM compound, 3 hrs, AsPC-1 cells) [%]
981	231	< 2	6	12	CCc1c(F)ccc2cc(O)cc(-c3ncc4c(N5CCCc6nnncc6C5)nc(OC[C@@]56CCCN5C[C@H](F)C6)nc4c3F)c12 [Example 584, 4-(4-(8,9-dihydro-5H-[1,2,3]triazino[5,4-c]azepin-6(7H)-yl)-8-fluoro-2-(((2R,7aS)-2-fluorohexahydro-1H-pyrrolizin-7a-yl)methoxy)pyrido[4,3-d]pyrimidin-7-yl)-5-ethyl-6-fluoronaphthalen-2-ol]	14	3	15	11	-18	-20
328	130	3	11	10	CCc1c(F)ccc2cc(O)cc(-c3ncc4c(N5CCCc6ncncc6C5)nc(OC[C@@]56CCCN5C[C@H](F)C6)nc4c3F)c12 [Example 582, 4-(4-(8,9-dihydro-5H-pyrimido[5,4-c]azepin-6(7H)-yl)-8-fluoro-2-(((2R,7aS)-2-fluorohexahydro-1H-pyrrolizin-7a-yl)methoxy)pyrido[4,3-d]pyrimidin-7-yl)-5-ethyl-6-fluoronaphthalen-2-ol]	32	13	15	3	–	–
